Laboratory results from US4839371A, “3-aralkyl-2-mercaptoyridines as dopamine-β-hydroxylase inhibitors” (SmithKline Beckman Corporation, priority 1987, dated 1989).
Read-outs that look alike come from different tables or passages of the source.

Tests used:
[1] = test system: DBH; details: cited from earlier work
[2] = test system: spontaneously hypertensive rats; assay: mean arterial blood pressure in spontaneously hypertensive rats; assay type: in vivo; details: 50 mg/kg intraperitoneally
Description: Maximal blood pressure reduction was approximately 50 to 55 mm Hg.

[3] = target: T1, DBH (Bos taurus, UniProt P15101); assay: in vitro DBH inhibition (conversion of tyramine to octopamine, spectrophotometric at 330 nm)
T1 sequence (P15101 1-610): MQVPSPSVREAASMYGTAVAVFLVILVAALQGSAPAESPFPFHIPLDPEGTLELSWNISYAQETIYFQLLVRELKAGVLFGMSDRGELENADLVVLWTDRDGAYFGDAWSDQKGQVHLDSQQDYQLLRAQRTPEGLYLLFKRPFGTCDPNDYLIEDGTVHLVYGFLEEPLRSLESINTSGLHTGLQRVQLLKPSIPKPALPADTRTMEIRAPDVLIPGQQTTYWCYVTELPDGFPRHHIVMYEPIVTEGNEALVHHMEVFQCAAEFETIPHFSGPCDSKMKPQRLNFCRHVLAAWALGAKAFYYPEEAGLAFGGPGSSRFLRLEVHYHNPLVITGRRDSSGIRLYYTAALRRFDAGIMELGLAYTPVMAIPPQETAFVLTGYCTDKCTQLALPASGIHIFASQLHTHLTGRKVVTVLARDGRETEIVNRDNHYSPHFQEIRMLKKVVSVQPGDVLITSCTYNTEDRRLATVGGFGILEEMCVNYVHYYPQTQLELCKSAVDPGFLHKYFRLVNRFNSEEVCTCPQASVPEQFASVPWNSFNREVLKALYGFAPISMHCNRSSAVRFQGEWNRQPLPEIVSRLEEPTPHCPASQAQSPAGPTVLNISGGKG

[4] = patients, Friedman et al., Psychosomatic Med. 40, 107 (1978), significance uncertain

Structure (SMILES)	lowered DBH levels in treated patients [1, 4]	IC50 [3] [µM]	other results
COC(=O)[C@H]1[C@H]2C[C@@H]3c4[nH]c5cc(OC)ccc5c4CCN3C[C@H]2C[C@@H](OC(=O)c2cc(OC)c(OC)c(OC)c2)[C@@H]1OC [reserpine]	lowered DBH levels	–	–
Fc1cc(F)cc(Cc2cccnc2S)c1	–	134	blood pressure reduction compared to vehicle-treated controls ([2]; monitored for 260 minutes): significant blood pressure reductions; time after treatment to significant blood pressure reductions ([2]; within approximately): ≤ 30 min
Fc1cccc(Cc2cccnc2S)c1 [3-(3-Fluorobenzyl)-2-mercaptopyridine]	–	500	–
C[C@](N)(Cc1ccc(O)c(O)c1)C(=O)O [alpha-methyl-DOPA]	lowered DBH levels	–	–
CC(C)NCC(O)COc1cccc2ccccc12 (stereo not shown) [propranolol]	–	–	lowered DBH levels in treated patients ([1]; human, in vivo): not
